Earlier results as cited in US7294332B2, “Combination therapy (temozolomide and α-IFN) for advanced cancer” (Schering Corporation, priority 1995, dated 2007).

Legend:
advanced melanoma [1] = conditions: patients with advanced melanoma; Journal of Clinical Oncology, Vol 13, No. 4 (April), 1995
advanced melanoma [2] = conditions: patients having advanced melanoma; Newlands ES, et al. Br J Cancer 65 (2), 1992

For `Cn1nnc2c(C(N)=O)ncn2c1=O` [Temozolomide, 3,4-dihydro-3-methyl-4-oxoimidazo-[5,1-d]1,2,3,4-tetrazin-8-carboximide], the “clinical response achieved, % of patients” value (advanced melanoma [1]) is listed as 21% and the “clinical responses achieved, % of patients” value (advanced melanoma [2]) is listed as 17%.
